From patent US20040092438A1, “Gd3-synthesis inhibitors for treating neuropathological disorders” (priority 1999, published 2004)

Key:
[1] = system: GD3 levels in the ischemic hemisphere; assay: GD3 levels in brain after MCA occlusion (thin-layer chromatography); type: in vivo, mice (C57BL6 strain); conditions: single i.p. 100 mg/kg with piperonyl butoxide 400 mg/kg, 15 min after MCA occlusion; 90-minute occlusion, 24-hour reperfusion
Procedure: (§3) This was done by pushing a siliconized nylon suture through the common carotid artery as far as the MCA and stopping the blood flow through the MCA. After 90 min, the thread was withdrawn and thus the blood circulation was restored. The animals were under deep anesthesia (ketamine and Rompun; each 150 mg/kg of bodyweight) and the rectal temperature was maintained at about 37° C. with heat lamps and a heated cushion throughout the operation. After an observation period of 24 hours, the animals were again anesthetized, and the brains were dissected after perfusion.
Thus, tissues and cells were disrupted by two freeze-thaw cycles. The polar lipids were extracted, and the gangliosides were chromatographed on silica gel plates 60 for high performance thin-layer chromatography (HPTLC) (Merck, Darmstadt, Germany), dried and visualized with resorcinol. […] For the immunostaining, the plates were coated with 0.5% poly(isobutyl methacrylate) in hexane, dried, incubated with the monoclonal antibody R24 (IgG3) directed against GD3 for 1 h, and read via the immunoperoxidase stain. The bands were then scanned and analyzed by densitometry using the AIDA-1000/1B image analyzer (Raytest Isotopenmessgerate, Straubenhardt, Germany).

[2] = system: focal cerebral ischemia; conditions: single i.p. 100 mg/kg with piperonyl butoxide; p <0.007
Procedure: as §3
The stained sections were scanned directly (MCID-M4,3.0; Imaging Res. Inc.). […] The significance was determined by the Mann-Whitney test. […] Averaging took place with the Scion-Image b 3.b.

[3] = system: primary neurons; assay: Oxygen/glucose deficiency in vitro, specific death of primary neurons; type: cell-based, mouse; conditions: 80 nM added 48 h before 6-hour oxygen/glucose deficiency, then reperfusion; relative to ST8-Sc-treated neurons
Procedure: Neurons were obtained from transgenic mice whose acid sphingomyelinase had been inactivated (ASM^−/−; Hirunouchi, K., et al., Nature Genetics 10, 288-294 (1995)) and wild-type mice of the same generation (ASM^+/+). Primary neuron cultures were prepared from 15- to 17-day mouse fetuses as previously described by Dawson, T. M., et al, Ann. neurol. 30, 843-6 (1991). […] The cells were applied to polyornithine-coated 24-well plates (Sigma, Deisenhofen, Germany). After 4 days, the cells were treated with cytosine arabinoside (5 μM) for a further four days in order to inhibit the proliferation of non-neural cells. The cell cultures were then kept at 8% CO2 and 37° C. in MEM, 10% horse serum, 25 mM glucose and 2 mM L-glutamine in a humidity incubator. The neurons were allowed to mature in culture for at least 8 days before being used for the experiment. The proportion of glial cells in the culture was determined using an antibody directed against glial fibrillary acidic protein (GFAP) to be less than 10%. […]
(§1) The percentage of dead cells was determined by trypan blue exclusion and expressed as percentage of the specific death. This was calculated as follows:
(§2) % specific death=(detected death−spontaneous death)/(100−spontaneous death)×100

[4] = system: GD3 synthase; assay: GD3 levels in neurons after oxygen/glucose deficiency and reperfusion (thin-layer chromatography); type: cell-based, mouse; conditions: 80 nM added 48 h before 6-hour oxygen/glucose deficiency, 24-hour reperfusion; relative to ST8-Sc-treated neurons
Procedure: The procedure for generating a combined oxygen/glucose deficiency was known per se (Kaku, D. A., et al., Brain Res. 554:344-7; Monyer, H. et al., Neuron 8, 967-73 (1992); with slight modifications). The culture medium was replaced by MEM, 1% horse serum and 2 mM L-glutamine. The cultures were kept in an anaerobic chamber which contained a gas mixture comprising […], 85% N2 and 5% CO2, at 37° C. and 100% humidity for 6 h. The oxygen/glucose deficiency was abolished by removing the cultures from the chamber and adding horse serum and glucose to a final concentration of 10% and 25 mM respectively. The cultures were then replaced in a humidity incubator containing 8% CO2 and atmospheric oxygen for a further 3 h, 18 h or 24 h. […]
GD3 was determined as previously described by De Maria, R., et al., Science 277, 1652-5 (1997). […] For the immunostaining, the plates were coated with 0.5% poly(isobutyl methacrylate) in hexane, dried, incubated with the monoclonal antibody R24 (IgG3) directed against GD3 for 1 h, and read via the immunoperoxidase stain. The bands were then scanned and analyzed by densitometry using the AIDA-1000/1B image analyzer (Raytest Isotopenmessgerate, Straubenhardt, Germany).

[5] = system: primary neurons; assay: Neuronal death after addition of gangliosides to cortical neuron cultures; type: cell-based, mouse; conditions: 24 h after addition of 500 μM (highest dose) to cortical neuronal cells
Procedure: Neurons were obtained from transgenic mice whose acid sphingomyelinase had been inactivated (ASM^−/−; Hirunouchi, K., et al., Nature Genetics 10, 288-294 (1995)) and wild-type mice of the same generation (ASM^+/+). Primary neuron cultures were prepared from 15- to 17-day mouse fetuses as previously described by Dawson, T. M., et al, Ann. neurol. 30, 843-6 (1991). […] The cells were applied to polyornithine-coated 24-well plates (Sigma, Deisenhofen, Germany). After 4 days, the cells were treated with cytosine arabinoside (5 μM) for a further four days in order to inhibit the proliferation of non-neural cells. The cell cultures were then kept at 8% CO2 and 37° C. in MEM, 10% horse serum, 25 mM glucose and 2 mM L-glutamine in a humidity incubator. The neurons were allowed to mature in culture for at least 8 days before being used for the experiment. The proportion of glial cells in the culture was determined using an antibody directed against glial fibrillary acidic protein (GFAP) to be less than 10%.
as §1, §2
Cortical neuronal cells were treated with increasing doses of GD3. […]

How did the “increase in GD3 on the ischemic side compared with the non-ischemic side” value [1] turn out when CCCCCCCCCC(=O)N[C@H](CN1CCOCC1)[C@H](O)c1ccccc1 [D-PDMP, D-threo-1-phenyl-2-decanoylamino-3-morpholino-1-propanol] was run?
Its value is 10%.

And the “reduction in the lesion caused by stroke compared with untreated ischemic animals” value [2]?
Its value is 90%.

What does the source list for “GD3 synthase antisense oligodeoxynucleotides: antisense oligodeoxynucleotides against GD3 synthase (SEQ ID NO:2) (antisense CAGTACAGCCATGGCCCCTCT; DNA, backbone and methylation of C not given here)”?
mortality, % of the level in cultures treated with randomly arranged sequence [3]: 50%; accumulation of GD3, % of controls [4]: 55%

How did the specific neuronal death [5] turn out when II^3(NeuAc-α-2,8-NeuAc)LacCer [GD3] was run?
Its specific neuronal death is “up to 80%”.
